Results on 2 compounds are retold here after patent US12202823B2 (QUIMATRYX, S.L., priority 2019, dated 2025).

Read-outs that look alike come from different tables or passages of the source.

The target of test [1] is hHDAC6 (Homo sapiens (Human), UniProt Q9UBN7). As to the kind of experiment: HDAC6 inhibition protocol. To be noted: read-out: IC50 (nM) of enzyme activity HDAC6.
Protocol: (§1) After enzymatic reactions, reaction was stopped by adding 5 μl of 10 μM solution of a known inhibitor. The fluorescent signal of substrate and product was measured by means of microfluidics mobility assay in a EZ Reader II equipment. The percentage of conversion of substrate into product was calculated by the equipment software based on the area of the peaks.
(§2) The percentage of conversion data were analyzed using the computer software, Graphpad Prism. In the absence of the compound, the conversion (Ct) in each data set was defined as 100% activity. In the absence of HDAC, the conversion (Cb) in each data set was defined as 0% activity. The percent activity in the presence of each compound was calculated according to the following equation: % inhibition=(Ct−C)/(Ct−Cb), where C=the percentage of conversion in the presence of the compound.
(§3) The values of % inhibition versus a series of compound concentrations were then plotted using non-linear regression analysis of Sigmoidal dose-response curve generated with the equation Y=B+(T−B)/1+10((Log EC50−X)×Hill Slope), where Y=percent inhibition, B=minimum percent inhibition, T=maximum percent inhibition, X=logarithm of compound and Hill Slope=slope factor or Hill coefficient. The IC50 value was determined by the concentration causing a half-maximal percent activity.
The buffer assay used in the inhibition hHDAC6 assay is: Hepes 50 mM, KCl 100 mM, Tween 20 0.001%, BSA 0.01%; pH=7.4.
In test [2] the target is hHDAC1 (Homo sapiens (Human), UniProt Q13547). As to the kind of experiment: hHDAC1 inhibition protocol. As to conditions: read-out: IC50 (nM) of enzyme activity HDAC1; selectivity table.
Protocol: as §1, §2, §3
The buffer assay used in the inhibition hHDAC1 assay is: Hepes 50 mM, KCl 100 mM, Tween 20 0.001%, BSA 0.01%; pH=7.4.
Test [3] concerns the target hHDAC2 (Homo sapiens (Human), UniProt Q92769). As to the kind of experiment: hHDAC2 inhibition protocol. To be noted: read-out: IC50 (nM) of enzyme activity HDAC2; selectivity table.
Protocol: as §1, §2, §3
The buffer assay used in the inhibition hHDAC2 assay is: Hepes 50 mM, KCl 100 mM, Tween 20 0.001%, BSA 0.01%; pH=7.4.
Test [4] addresses hHDAC3 (Homo sapiens (Human), UniProt O15379). Kind of test: hHDAC3 inhibition protocol. As to conditions: read-out: IC50 (nM) of enzyme activity HDAC3; selectivity table.
Protocol: as §1, §2, §3
The buffer assay used in the inhibition hHDAC3 assay is: Hepes 50 mM, KCl 100 mM, Tween 20 0.001%, BSA 0.01%; pH=7.4.
The target of test [5] is hHDAC4 (Homo sapiens (Human), UniProt P56524). Kind of test: hHDAC4 inhibition protocol. As to conditions: read-out: IC50 (nM) of enzyme activity HDAC4; selectivity table.
Protocol: as §1, §2, §3
The buffer assay used in the inhibition hHDAC4 assay is: Hepes 50 mM, KCl 100 mM, Tween 20 0.001%, BSA 0.01%; pH=7.4.
Test [6] deals with hHDAC5 (Homo sapiens (Human), UniProt Q9UQL6). Kind of test: hHDAC5 inhibition protocol. As to conditions: read-out: IC50 (nM) of enzyme activity HDAC5; selectivity table.
Protocol: as §1, §2, §3
The buffer assay used in the inhibition hHDAC5 assay is: Hepes 50 mM, KCl 100 mM, Tween 20 0.001%, BSA 0.01%; pH=7.4.
Test [7] has as its target hHDAC7 (Homo sapiens (Human), UniProt Q8WUI4). Kind of test: hHDAC7 inhibition protocol. To be noted: read-out: IC50 (nM) of enzyme activity HDAC7; selectivity table.
Protocol: The fluorescent signal of substrate and product was measured by means of microfluidics mobility assay in a EZ Reader II equipment. The percentage of conversion of substrate into product was calculated by the equipment software based on the area of the peaks.
as §2, §3
The buffer assay used in the inhibition hHDAC7 assay is: Hepes 50 mM, KCl 100 mM, Tween 20 0.001%, BSA 0.01%; pH=7.4.
Test [8] deals with hHDAC8 (Homo sapiens (Human), UniProt Q9BY41). Kind of test: hHDAC8 inhibition protocol. To be noted: read-out: IC50 (nM) of enzyme activity HDAC8; selectivity table.
Protocol: as §1, §2, §3
The buffer assay used in the inhibition hHDAC8 assay is: Hepes 50 mM, KCl 100 mM, Tween 20 0.001%, BSA 0.01%; pH=7.4.
Test [9] addresses hHDAC9 (Homo sapiens (Human), UniProt Q9UKV0). Kind of test: hHDAC9 inhibition protocol. As to conditions: read-out: IC50 (nM) of enzyme activity HDAC9; selectivity table.
Protocol: as §1, §2, §3
The buffer assay used in the inhibition hHDAC9 assay is: Hepes 50 mM, KCl 100 mM, Tween 20 0.001%, BSA 0.01%; pH=7.4.
Test [10] deals with hHDAC10 (Homo sapiens (Human), UniProt Q969S8). As to the kind of experiment: HDAC10 inhibition protocol. As to conditions: read-out: IC50 (nM) of enzyme activity HDAC10; selectivity table.
Protocol: as §1, §2, §3
The buffer assay used in the inhibition hHDAC10 assay is: Hepes 50 mM, KCl 100 mM, Tween 20 0.001%, BSA 0.01%; pH=7.4.
Where [11] appears, read: hHDAC6 1.20 nM, Acetylated Peptide A 2 μM, 1 hour at RT.

Sequence of hHDAC6 (Q9UBN7 whole entry): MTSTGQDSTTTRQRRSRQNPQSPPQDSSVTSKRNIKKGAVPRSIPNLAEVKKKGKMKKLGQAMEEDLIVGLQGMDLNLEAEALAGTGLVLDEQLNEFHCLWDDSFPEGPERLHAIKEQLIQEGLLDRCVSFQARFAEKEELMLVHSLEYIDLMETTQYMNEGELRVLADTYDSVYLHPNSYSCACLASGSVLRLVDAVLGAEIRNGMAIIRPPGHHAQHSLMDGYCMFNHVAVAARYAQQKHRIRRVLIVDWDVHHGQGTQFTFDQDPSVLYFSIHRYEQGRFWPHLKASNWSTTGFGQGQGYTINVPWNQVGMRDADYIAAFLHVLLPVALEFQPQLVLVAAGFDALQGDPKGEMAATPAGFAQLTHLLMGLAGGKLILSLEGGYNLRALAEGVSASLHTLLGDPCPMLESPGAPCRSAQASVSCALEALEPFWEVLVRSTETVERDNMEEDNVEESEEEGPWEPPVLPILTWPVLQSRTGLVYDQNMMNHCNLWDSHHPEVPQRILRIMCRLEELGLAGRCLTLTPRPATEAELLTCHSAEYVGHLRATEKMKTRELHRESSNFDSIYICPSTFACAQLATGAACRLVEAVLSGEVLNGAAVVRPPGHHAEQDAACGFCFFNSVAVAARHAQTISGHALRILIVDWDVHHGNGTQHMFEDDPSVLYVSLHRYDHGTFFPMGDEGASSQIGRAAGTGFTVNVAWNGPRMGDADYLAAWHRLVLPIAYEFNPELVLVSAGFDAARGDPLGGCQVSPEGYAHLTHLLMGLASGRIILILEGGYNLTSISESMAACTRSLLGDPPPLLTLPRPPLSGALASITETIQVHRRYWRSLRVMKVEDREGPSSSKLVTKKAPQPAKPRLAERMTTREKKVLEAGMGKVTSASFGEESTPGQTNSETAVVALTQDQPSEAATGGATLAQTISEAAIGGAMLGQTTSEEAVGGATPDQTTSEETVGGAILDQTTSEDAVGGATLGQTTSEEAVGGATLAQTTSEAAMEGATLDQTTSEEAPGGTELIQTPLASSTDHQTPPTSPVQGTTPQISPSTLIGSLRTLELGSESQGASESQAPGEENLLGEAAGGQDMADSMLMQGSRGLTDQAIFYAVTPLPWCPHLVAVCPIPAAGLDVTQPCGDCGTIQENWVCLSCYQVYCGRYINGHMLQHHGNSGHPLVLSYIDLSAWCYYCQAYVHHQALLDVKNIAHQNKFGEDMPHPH
Sequence of hHDAC9 (Q9UKV0 whole entry): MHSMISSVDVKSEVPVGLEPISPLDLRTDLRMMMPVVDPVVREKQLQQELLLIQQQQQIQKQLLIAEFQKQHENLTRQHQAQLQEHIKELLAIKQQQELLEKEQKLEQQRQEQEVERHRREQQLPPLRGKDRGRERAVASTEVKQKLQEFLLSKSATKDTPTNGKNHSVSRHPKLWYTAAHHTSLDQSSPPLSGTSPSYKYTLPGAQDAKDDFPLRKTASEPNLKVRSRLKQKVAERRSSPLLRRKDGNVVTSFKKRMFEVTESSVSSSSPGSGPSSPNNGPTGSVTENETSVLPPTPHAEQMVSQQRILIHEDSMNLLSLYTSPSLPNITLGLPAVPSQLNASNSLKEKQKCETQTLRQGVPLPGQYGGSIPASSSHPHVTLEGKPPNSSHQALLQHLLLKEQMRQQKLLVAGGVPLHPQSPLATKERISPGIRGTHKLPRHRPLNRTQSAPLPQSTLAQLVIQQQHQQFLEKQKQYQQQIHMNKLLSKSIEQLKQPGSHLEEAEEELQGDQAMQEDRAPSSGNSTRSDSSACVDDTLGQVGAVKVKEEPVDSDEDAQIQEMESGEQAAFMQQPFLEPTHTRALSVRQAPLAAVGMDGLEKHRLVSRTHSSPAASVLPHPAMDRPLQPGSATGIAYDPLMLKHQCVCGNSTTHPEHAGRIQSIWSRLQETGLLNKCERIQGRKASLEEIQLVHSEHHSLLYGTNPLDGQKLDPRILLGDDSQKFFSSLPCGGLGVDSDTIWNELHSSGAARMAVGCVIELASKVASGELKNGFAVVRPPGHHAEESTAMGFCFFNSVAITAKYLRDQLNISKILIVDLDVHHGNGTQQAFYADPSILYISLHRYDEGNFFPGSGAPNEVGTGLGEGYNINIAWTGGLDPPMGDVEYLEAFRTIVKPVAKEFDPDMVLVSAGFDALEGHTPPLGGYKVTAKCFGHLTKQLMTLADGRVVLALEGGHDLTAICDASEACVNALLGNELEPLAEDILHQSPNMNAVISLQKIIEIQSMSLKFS
Sequence of hHDAC7 (Q8WUI4 whole entry): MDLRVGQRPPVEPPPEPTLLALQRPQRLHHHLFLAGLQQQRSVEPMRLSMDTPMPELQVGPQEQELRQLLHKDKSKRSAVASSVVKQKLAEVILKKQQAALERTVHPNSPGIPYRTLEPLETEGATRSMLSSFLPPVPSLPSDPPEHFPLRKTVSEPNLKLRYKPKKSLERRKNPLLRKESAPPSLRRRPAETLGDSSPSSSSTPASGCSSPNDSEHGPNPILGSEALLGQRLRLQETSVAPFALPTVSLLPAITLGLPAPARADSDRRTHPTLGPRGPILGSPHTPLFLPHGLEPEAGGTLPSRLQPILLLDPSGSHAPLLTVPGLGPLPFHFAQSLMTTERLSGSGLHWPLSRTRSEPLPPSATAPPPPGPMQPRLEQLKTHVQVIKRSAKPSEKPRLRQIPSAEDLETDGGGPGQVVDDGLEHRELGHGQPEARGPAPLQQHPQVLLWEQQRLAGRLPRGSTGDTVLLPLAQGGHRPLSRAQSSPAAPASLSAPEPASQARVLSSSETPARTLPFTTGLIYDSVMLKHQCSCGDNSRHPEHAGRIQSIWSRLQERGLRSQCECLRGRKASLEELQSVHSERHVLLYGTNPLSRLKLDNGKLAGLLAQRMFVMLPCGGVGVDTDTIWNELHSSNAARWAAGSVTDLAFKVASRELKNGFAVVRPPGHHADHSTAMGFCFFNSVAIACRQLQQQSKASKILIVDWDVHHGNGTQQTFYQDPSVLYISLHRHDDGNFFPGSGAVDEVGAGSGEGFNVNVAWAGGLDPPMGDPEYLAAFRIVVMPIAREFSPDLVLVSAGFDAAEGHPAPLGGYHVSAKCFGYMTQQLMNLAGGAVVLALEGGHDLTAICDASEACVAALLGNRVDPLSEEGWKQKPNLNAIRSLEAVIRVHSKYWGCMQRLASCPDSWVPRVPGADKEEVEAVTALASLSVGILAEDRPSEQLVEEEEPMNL
Sequence of hHDAC3 (O15379 whole entry): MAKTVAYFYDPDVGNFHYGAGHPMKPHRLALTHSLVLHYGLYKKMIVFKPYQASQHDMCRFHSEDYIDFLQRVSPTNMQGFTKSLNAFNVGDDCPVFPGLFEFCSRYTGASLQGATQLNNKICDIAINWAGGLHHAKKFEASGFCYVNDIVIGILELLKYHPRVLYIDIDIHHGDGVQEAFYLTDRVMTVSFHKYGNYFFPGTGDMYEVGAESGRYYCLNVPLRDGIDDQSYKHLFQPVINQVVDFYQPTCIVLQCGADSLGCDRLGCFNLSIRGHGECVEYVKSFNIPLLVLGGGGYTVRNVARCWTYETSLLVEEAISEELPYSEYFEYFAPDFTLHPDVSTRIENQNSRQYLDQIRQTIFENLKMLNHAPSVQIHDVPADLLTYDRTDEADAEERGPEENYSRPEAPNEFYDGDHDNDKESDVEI
Sequence of hHDAC3 (Q9Y618 395-489 partner): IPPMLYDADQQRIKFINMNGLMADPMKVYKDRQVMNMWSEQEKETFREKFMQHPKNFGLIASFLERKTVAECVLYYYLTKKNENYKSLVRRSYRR
Sequence of hHDAC4 (P56524 whole entry): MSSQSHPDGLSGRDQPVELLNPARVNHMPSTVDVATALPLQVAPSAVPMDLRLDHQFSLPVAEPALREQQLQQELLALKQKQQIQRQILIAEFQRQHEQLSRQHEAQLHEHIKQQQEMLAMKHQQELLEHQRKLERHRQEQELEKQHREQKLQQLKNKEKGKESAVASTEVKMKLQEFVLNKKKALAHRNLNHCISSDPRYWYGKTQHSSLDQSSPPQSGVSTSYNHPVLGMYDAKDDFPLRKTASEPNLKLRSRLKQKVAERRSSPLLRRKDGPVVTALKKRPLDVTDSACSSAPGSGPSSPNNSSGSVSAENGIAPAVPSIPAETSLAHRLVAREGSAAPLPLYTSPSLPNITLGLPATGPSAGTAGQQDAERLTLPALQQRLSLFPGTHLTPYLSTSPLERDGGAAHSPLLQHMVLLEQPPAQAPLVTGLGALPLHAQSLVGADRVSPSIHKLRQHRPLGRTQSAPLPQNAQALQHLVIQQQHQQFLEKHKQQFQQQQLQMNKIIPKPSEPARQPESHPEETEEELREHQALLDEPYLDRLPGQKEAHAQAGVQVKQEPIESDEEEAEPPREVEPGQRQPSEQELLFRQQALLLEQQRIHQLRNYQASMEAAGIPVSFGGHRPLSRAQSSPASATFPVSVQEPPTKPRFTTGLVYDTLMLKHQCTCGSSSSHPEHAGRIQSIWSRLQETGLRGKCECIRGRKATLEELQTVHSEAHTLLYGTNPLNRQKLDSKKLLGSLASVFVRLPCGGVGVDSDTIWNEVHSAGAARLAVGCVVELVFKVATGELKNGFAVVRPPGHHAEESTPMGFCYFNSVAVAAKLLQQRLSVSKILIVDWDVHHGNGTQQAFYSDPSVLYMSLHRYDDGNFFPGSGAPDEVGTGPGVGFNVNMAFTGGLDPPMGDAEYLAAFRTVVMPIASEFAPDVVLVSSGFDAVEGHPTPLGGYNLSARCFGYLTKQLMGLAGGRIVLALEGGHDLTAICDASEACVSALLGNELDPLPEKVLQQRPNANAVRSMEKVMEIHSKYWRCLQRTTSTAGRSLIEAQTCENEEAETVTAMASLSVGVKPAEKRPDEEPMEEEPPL

Regarding `Fc1ccccc1-c1cn(Cc2ccc(-c3nnc(C(F)F)o3)cn2)nn1` [Example 48, 2-(difluoromethyl)-5-(6-((4-(2-fluorophenyl)-1H-1,2,3-triazol-1-yl)methyl)pyridin-3-yl)-1,3,4-oxadiazole], the 50% inhibitory concentration (IC50) (in general, the concentration that inhibits the measured activity by half) is 24 nM in test [1] (setting [11]); 24 nM in test [1] (selectivity table); > 10000 nM in test [2]; > 10000 nM in [3]; > 10000 nM in test [4]; > 10000 nM in test [5]. Besides, the IC50 in [6], in [7], in test [8], in test [9] and in [10] was > 10000 nM throughout.

As to `FC(F)c1nnc(-c2ccc(Cn3nnc(-c4cccc(Cl)c4)c3Cl)nc2)o1` [Example 54, 2-(6-((5-chloro-4-(3-chlorophenyl)-1H-1,2,3-triazol-1-yl)methyl)pyridin-3-yl)-5-(difluoromethyl)-1,3,4-oxadiazole], the IC50 was 34.1 nM in [1] (setting [11]); 34.1 nM in test [1] (selectivity table); > 10000 nM in test [2]; > 10000 nM in [3]; > 10000 nM in [4]; 1490 nM in [5]. Besides, the IC50 in test [6] is > 10000 nM; in test [7] it was 1400 nM; in test [8] it was > 10000 nM; in test [9], 2610 nM; in test [10], > 10000 nM.
